Experimental findings from patent US20230107642A1 (Erasca, Inc., priority 2020, published 2023) are described below.

The target in the experiment is T1, K-Ras G12C (Homo sapiens, UniProt P01116, G12C).
T1 construct: This protein contained 188 amino acids in total, including an N-terminal 6-Histidine tag; made in house; host or cells: E. coli BL21
In words: CAF assay (% CAF; method in Example 7, not in this part). It is filed as binding. Particulars: for % CAF @ 10 uM, 1h: Table 3; for % CAF @ 10 μM, 1 h: Table 4.

Turning to `C=CC(=O)N1CCN(c2nc(=O)n3c4c(c(-c5ccc(F)cc5F)c(Cl)cc24)SCC3)[C@@H](CN2CCC2)C1` [Example 169, 7-((S)-4-acryloyl-2-(azetidin-1-ylmethyl)piperazin-1-yl)-9-chloro-10-(2,4-difluorophenyl)-2,3-dihydro-5H-[1,4]thiazino[2,3,4-ij]quinazolin-5-one], the “% CAF @ 10 uM, 1h” value (10 uM) came out at 23.3%. Same read-out and setting: as for `C=CC(=O)N1CCN(c2nc(=O)n3c4c(c(-c5c(F)cccc5F)c(Cl)cc24)SCC3)[C@@H](C)C1` [Example 170, (S)-7-(4-acryloyl-2-methylpiperazin-1-yl)-9-chloro-10-(2,6-difluorophenyl)-2,3-dihydro-5H-[1,4]thiazino[2,3,4-ij]quinazolin-5-one], the figure is 75.9%; as for `C=CC(=O)N1CCN(c2nc(=O)n3c4c(c(-c5cc(Cl)ccc5Cl)c(Cl)cc24)SCC3)[C@@H](C)C1` [Example 171, 7-((S)-4-acryloyl-2-methylpiperazin-1-yl)-9-chloro-10-(2,5-dichlorophenyl)-2,3-dihydro-5H-[1,4]thiazino[2,3,4-ij]quinazolin-5-one], 48.9%. Same read-out and setting: as for `C=CC(=O)N1CCN(c2nc(=O)n3c4c(c(-c5ccc(F)cc5F)c(Cl)cc24)SCC3)[C@@H](C#N)C1` [Example 173, (2R)-4-acryloyl-1-(9-chloro-10-(2,4-difluorophenyl)-5-oxo-2,3-dihydro-5H-[1,4]thiazino[2,3,4-ij]quinazolin-7-yl)piperazine-2-carbonitrile], the figure is 2.2%; as for `C=CC(=O)N1CCN(c2nc(=O)n3c4c(c(-c5cccc(Cl)c5F)c(Cl)cc24)SCC3)[C@@H](C)C1` [Example 174, 7-((S)-4-acryloyl-2-methylpiperazin-1-yl)-9-chloro-10-(3-chloro-2-fluorophenyl)-2,3-dihydro-5H-[1,4]thiazino[2,3,4-ij]quinazolin-5-one], 93.8%; as for `C=CC(=O)N1CCN(c2nc(=O)n3c4c(c(-c5cc(Cl)ccc5F)c(Cl)cc24)SCC3)[C@@H](C)C1` [Example 175, 7-((S)-4-acryloyl-2-methylpiperazin-1-yl)-9-chloro-10-(5-chloro-2-fluorophenyl)-2,3-dihydro-5H-[1,4]thiazino[2,3,4-ij]quinazolin-5-one], 79.8%. As to `C=C(F)C(=O)N1CCN(c2nc(=O)n3c4c(c(-c5ccc(F)cc5F)c(Cl)cc24)SCC3)C[C@@H]1CC#N` [Example 176, 2-((2S)-4-(9-chloro-10-(2,4-difluorophenyl)-5-oxo-2,3-dihydro-5H-[1,4]thiazino[2,3,4-ij]quinazolin-7-yl)-1-(2-fluoroacryloyl)piper-azin-2-yl)acetonitrile], where the note is “10 uM”, the “% CAF @ 10 uM, 1h” value was 40.5%.

On to `C=CC(=O)N1CCN(c2nc(=O)n3c4c(c(-c5ccc(F)cc5F)c(Cl)cc24)SCC3)[C@@H](C)C1` [Example 179, (S)-7-((S)-4-acryloyl-2-methylpiperazin-1-yl)-9-chloro-10-(2,4-difluorophenyl)-2,3-dihydro-5H-[1,4]thiazino[2,3,4-ij]quinazolin-5-one], for which the “% CAF @ 10 uM, 1h” value (10 uM) is listed as 96%. Still for that read-out and setting: as for `C=CC(=O)N1CC2CCC1CN2c1nc(=O)n2c3c(c(-c4ccc(F)cc4F)c(Cl)cc13)SCC2` (stereo not shown) [Example 181, 7-(5-acryloyl-2,5-diazabicyclo[2.2.2]octan-2-yl)-9-chloro-10-(2,4-difluorophenyl)-2,3-dihydro-5H-[1,4]thiazino[2,3,4-ij]quinazolin-5-one], the figure is 28.7%.

With `C=CC(=O)N1C2COCC1CN(c1nc(=O)n3c4c(c(-c5ccc(F)cc5F)c(Cl)cc14)SCC3)C2` [Example 182, 7-(9-acryloyl-3-oxa-7,9-diazabicyclo[3.3.1]nonan-7-yl)-9-chloro-10-(2,4-difluorophenyl)-2,3-dihydro-5H-[1,4]thiazino[2,3,4-ij]quinazolin-5-one], the “% CAF @ 10 uM, 1h” value (10 uM) was determined as 94.4%. On to `C=CC(=O)N1C[C@H](C)N(c2nc(=O)n3c4c(c(-c5ccc(F)cc5F)c(Cl)cc24)S(=O)(=O)CC3)C[C@H]1C` [Example 184, 7-((2S,5R)-4-acryloyl-2,5-dimethylpiperazin-1-yl)-9-chloro-10-(2,4-difluorophenyl)-2,3-dihydro-5H-[1,4]thiazino[2,3,4-ij]quinazolin-5-one 1,1-dioxide], for which the “% CAF @ 10 uM, 1h” value (10 uM) amounted to 91.4%. Turning to `C=CC(=O)N1CCN(c2nc(=O)n3c4c(c(-c5ccc(F)cc5F)c(Cl)cc24)SCC3)[C@@H](CS(C)(=O)=O)C1` [Example 185, 7-((R)-4-acryloyl-2-((methylsulfonyl)methyl)piperazin-1-yl)-9-chloro-10-(2,4-difluorophenyl)-2,3-dihydro-5H-[1,4]thiazino[2,3,4-ij]quinazolin-5-one], where the note is “10 uM”, the “% CAF @ 10 uM, 1h” value turned out to be 93.3%.

In the case of `C=CC(=O)N1CCN(c2nc(=O)n3c4c(c(-c5ccc(F)cc5F)c(Cl)cc24)SCC3)C[C@@H]1CS(C)(=O)=O` [Example 186, 7-((R)-4-acryloyl-3-((methylsulfonyl)methyl)piperazin-1-yl)-9-chloro-10-(2,4-difluorophenyl)-2,3-dihydro-5H-[1,4]thiazino[2,3,4-ij]quinazolin-5-one], the “% CAF @ 10 uM, 1h” value (10 uM) was determined as 92.6%. For `C=CC(=O)N1CCN(c2nc(=O)n3c4c(c(-c5ccc(F)cc5F)c(Cl)cc24)SCC3)C[C@H]1CS(C)(=O)=O` [Example 187, 7-((S)-4-acryloyl-3-((methylsulfonyl)methyl)piperazin-1-yl)-9-chloro-10-(2,4-difluorophenyl)-2,3-dihydro-5H-[1,4]thiazino[2,3,4-ij]quinazolin-5-one], the “% CAF @ 10 uM, 1h” value (10 uM) is reported as 83.7%.

On to `C=CC(=O)N1CCN(c2nc(=O)n3c4c(c(-c5ccc(F)cc5F)c(Cl)cc24)SCC3)[C@H](CS(C)(=O)=O)C1` [Example 188, 7-((S)-4-acryloyl-2-((methylsulfonyl)methyl)piperazin-1-yl)-9-chloro-10-(2,4-difluorophenyl)-2,3-dihydro-5H-[1,4]thiazino[2,3,4-ij]quinazolin-5-one], for which the “% CAF @ 10 uM, 1h” value (10 uM) was 89.2%. With `C=CC(=O)N1C[C@H](C)N(c2nc(=O)n3c4c(c(-c5ccc(F)cc5F)c(Cl)cc24)SCC3)C[C@H]1C` [Example 189, 7-((2S,5R)-4-acryloyl-2,5-dimethylpiperazin-1-yl)-9-chloro-10-(2,4-difluorophenyl)-2,3-dihydro-5H-[1,4]thiazino[2,3,4-ij]quinazolin-5-one], the “% CAF @ 10 uM, 1h” value (10 uM) is 93.8%. Turning to `C=CC(=O)N1CCN(c2nc(=O)n3c4c(c(-c5ccc(F)cc5F)c(Cl)cc24)S(=O)(=O)CC3)[C@@H](C)C1` [Example 190, 7-((S)-4-acryloyl-2-methylpiperazin-1-yl)-9-chloro-10-(2,4-difluorophenyl)-2,3-dihydro-5H-[1,4]thiazino[2,3,4-ij]quinazolin-5-one 1,1-dioxide], for the setting “10 uM, 60 min, Table 2a”, the “% CAF 10 uM @ 60 min” value is listed as 88.8%. Further, the “% CAF @ 10 uM, 1h” value (10 uM) is listed as 88.2%. For the molecule `C=CC(=O)N1CCN(c2nc(=O)n3c4c(c(-c5ccc(F)cc5F)c(Cl)cc24)[S@@+]([O-])CC3)[C@@H](C)C1` [Example 191, 7-((S)-4-acryloyl-2-methylpiperazin-1-yl)-9-chloro-10-(2,4-difluorophenyl)-2,3-dihydro-5H-[1,4]thiazino[2,3,4-ij]quinazolin-5-one 1-oxide], the “% CAF @ 10 uM, 1h” value (10 uM) turned out to be 26.6%. On the same count and under the same terms, the result for `C=CC(=O)N1CCN(c2nc(=O)n3c4c(c(-c5ccc(F)cc5F)c(Cl)cc24)[S@+]([O-])CC3)[C@@H](C)C1` [Example 192, 7-((S)-4-acryloyl-2-methylpiperazin-1-yl)-9-chloro-10-(2,4-difluorophenyl)-2,3-dihydro-5H-[1,4]thiazino[2,3,4-ij]quinazolin-5-one 1-oxide] reads 62.4%; that for `C=CC(=O)N1CCN(c2nc(=O)n3c4c(c(-c5ccc(F)cc5F)c(Cl)cc24)SCC3)[C@@H](C)C1` [Example 193, 7-((S)-4-acryloyl-2-methylpiperazin-1-yl)-9-chloro-10-(2,4-difluorophenyl)-2,3-dihydro-5H-[1,4]thiazino[2,3,4-ij]quinazolin-5-one], 97%.

Take `C=CC(=O)N1C2CC(=O)CC1CN(c1nc(=O)n3c4c(c(-c5ccc(F)cc5F)c(C(F)(F)F)cc14)OCCC3)C2` [Example 338, 8-(9-acryloyl-7-oxo-3,9-diazabicyclo[3.3.1]nonan-3-yl)-11-(2,4-difluorophenyl)-10-(trifluoromethyl)-3,4-dihydro-2H,6H-[1,4]oxazepino[2,3,4-ij]quinazolin-6-one]: the “% CAF @ 10 μM, 1 h” value was 95.3%. Still for that read-out and setting: as for `C=CC(=O)N1CCN(c2nc(=O)n3c4c(c(-c5c(F)cc(F)cc5F)c(Cl)cc24)SC[C@H]3CCCN2C[C@@H]3C[C@H]2CO3)[C@@H](C)C1` [Example 339, (R)-3-(3-((1S,4S)-2-oxa-5-azabicyclo[2.2.1]heptan-5-yl)propyl)-7-((S)-4-acryloyl-2-methylpiperazin-1-yl)-9-chloro-10-(2,4,6-trifluorophenyl)-2H-[1,4]thiazino[2,3,4-ij]quinazolin-5(3H)-one], the figure is 96.6%. In the case of `C=CC(=O)N1CCN(c2nc(=O)n3c4c(c(-c5c(F)cc(F)cc5F)c(Cl)cc24)SC[C@@H]3CCCN2C[C@@H]3C[C@H]2CO3)[C@@H](C)C1` [Example 340, (S)-3-(3-((1S,4S)-2-oxa-5-azabicyclo[2.2.1]heptan-5-yl)propyl)-7-((S)-4-acryloyl-2-methylpiperazin-1-yl)-9-chloro-10-(2,4,6-trifluorophenyl)-2H-[1,4]thiazino[2,3,4-ij]quinazolin-5(3H)-one], the “% CAF @ 10 μM, 1 h” value is 96.9%. The same measure, in the same setting: as for `C=CC(=O)N1CCN(c2nc(=O)n3c4c(c(-c5ccc(F)cc5F)c(Cl)cc24)SC[C@H]3CCCN2C[C@@H]3C[C@H]2CO3)[C@@H](C)C1` [Example 341, (3R)-3-(3-((1S,4S)-2-oxa-5-azabicyclo[2.2.1]heptan-5-yl)propyl)-7-((S)-4-acryloyl-2-methylpiperazin-1-yl)-9-chloro-10-(2,4-difluorophenyl)-2H-[1,4]thiazino[2,3,4-ij]quinazolin-5(3H)-one], the figure is 96.5%.
